Drawing on ChEMBL document CHEMBL5678818, “Discovery of potent SOS1 inhibitors that block RAS activation via disruption of the RAS-SOS1 interaction” (Proc Natl Acad Sci U S A, 2019), this text covers Activity for two molecules.

Assay [1] addresses 5'-AMP-activated protein kinase catalytic subunit alpha-1 (Homo sapiens) (UniProt Q13131). Put plainly: Inhibition of AMPK-alpha1 (unknown origin) assessed as residual activity at 1000 nM by KINOMEscan analysis relative to control.
Assay [2] deals with Calcium/calmodulin-dependent protein kinase type 1D (Homo sapiens) (UniProt Q8IU85). Nature of the assay: Inhibition of CAMK1D (unknown origin) assessed as residual activity at 1000 nM by KINOMEscan analysis relative to control.
The target in assay [3] is Cyclin-dependent kinase 2 (Homo sapiens) (UniProt P24941). Put plainly: Inhibition of CDK2 (unknown origin) assessed as residual activity at 1000 nM by KINOMEscan analysis relative to control.
Assay [4] concerns the target Casein kinase I isoform epsilon (Homo sapiens) (UniProt P49674). Put plainly: Inhibition of CSNK1E (unknown origin) assessed as residual activity at 1000 nM by KINOMEscan analysis relative to control.
The target of assay [5] is Glycogen synthase kinase-3 beta (Homo sapiens) (UniProt P49841). Nature of the assay: Inhibition of GSK3B (unknown origin) assessed as residual activity at 1000 nM by KINOMEscan analysis relative to control.
Assay [6] addresses Homeodomain-interacting protein kinase 3 (Homo sapiens) (UniProt Q9H422). Nature of the assay: Inhibition of HIPK3 (unknown origin) assessed as residual activity at 1000 nM by KINOMEscan analysis relative to control.
The target of assay [7] is T1, Serine/threonine-protein kinase STK11 (Homo sapiens) (UniProt Q15831).
T1 sequence (whole entry): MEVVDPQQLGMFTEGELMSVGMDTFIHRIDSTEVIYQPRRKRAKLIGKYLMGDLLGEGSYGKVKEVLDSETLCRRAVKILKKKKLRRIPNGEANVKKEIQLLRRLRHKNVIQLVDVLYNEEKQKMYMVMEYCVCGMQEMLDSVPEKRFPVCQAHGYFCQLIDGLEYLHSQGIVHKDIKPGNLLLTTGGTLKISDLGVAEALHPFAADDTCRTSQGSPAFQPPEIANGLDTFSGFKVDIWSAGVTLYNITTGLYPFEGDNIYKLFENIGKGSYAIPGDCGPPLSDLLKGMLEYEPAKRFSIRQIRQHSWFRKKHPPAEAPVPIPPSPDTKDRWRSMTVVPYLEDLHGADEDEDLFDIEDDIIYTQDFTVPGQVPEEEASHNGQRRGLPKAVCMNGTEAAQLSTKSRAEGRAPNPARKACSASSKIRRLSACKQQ
Nature of the assay: Inhibition of LKB1 (unknown origin) assessed as residual activity at 1000 nM by KINOMEscan analysis relative to control.

For assay [8], the target named is Leukocyte tyrosine kinase receptor (Homo sapiens) (UniProt P29376). Put plainly: Inhibition of LTK (unknown origin) assessed as residual activity at 1000 nM by KINOMEscan analysis relative to control.
In assay [9] the target is Serine/threonine-protein kinase MARK1 (Homo sapiens) (UniProt Q9P0L2). Put plainly: Inhibition of MARK1 (unknown origin) assessed as residual activity at 1000 nM by KINOMEscan analysis relative to control.
Assay [10] concerns the target Myosin-IIIa (Homo sapiens) (UniProt Q8NEV4). Nature of the assay: Inhibition of MYO3A (unknown origin) assessed as residual activity at 1000 nM by KINOMEscan analysis relative to control.
The target of assay [11] is Phosphatidylinositol 4-phosphate 3-kinase C2 domain-containing subunit beta (Homo sapiens) (UniProt O00750). Nature of the assay: Inhibition of PIK3C2B (unknown origin) assessed as residual activity at 1000 nM by KINOMEscan analysis relative to control.
Assay [12] has as its target High affinity nerve growth factor receptor (Homo sapiens) (UniProt P04629). Put plainly: Inhibition of TRKA (unknown origin) assessed as residual activity at 1000 nM by KINOMEscan analysis relative to control.
The target of assay [13] is T2, Dual specificity protein kinase TTK (Homo sapiens) (UniProt P33981).
T2 sequence (whole entry): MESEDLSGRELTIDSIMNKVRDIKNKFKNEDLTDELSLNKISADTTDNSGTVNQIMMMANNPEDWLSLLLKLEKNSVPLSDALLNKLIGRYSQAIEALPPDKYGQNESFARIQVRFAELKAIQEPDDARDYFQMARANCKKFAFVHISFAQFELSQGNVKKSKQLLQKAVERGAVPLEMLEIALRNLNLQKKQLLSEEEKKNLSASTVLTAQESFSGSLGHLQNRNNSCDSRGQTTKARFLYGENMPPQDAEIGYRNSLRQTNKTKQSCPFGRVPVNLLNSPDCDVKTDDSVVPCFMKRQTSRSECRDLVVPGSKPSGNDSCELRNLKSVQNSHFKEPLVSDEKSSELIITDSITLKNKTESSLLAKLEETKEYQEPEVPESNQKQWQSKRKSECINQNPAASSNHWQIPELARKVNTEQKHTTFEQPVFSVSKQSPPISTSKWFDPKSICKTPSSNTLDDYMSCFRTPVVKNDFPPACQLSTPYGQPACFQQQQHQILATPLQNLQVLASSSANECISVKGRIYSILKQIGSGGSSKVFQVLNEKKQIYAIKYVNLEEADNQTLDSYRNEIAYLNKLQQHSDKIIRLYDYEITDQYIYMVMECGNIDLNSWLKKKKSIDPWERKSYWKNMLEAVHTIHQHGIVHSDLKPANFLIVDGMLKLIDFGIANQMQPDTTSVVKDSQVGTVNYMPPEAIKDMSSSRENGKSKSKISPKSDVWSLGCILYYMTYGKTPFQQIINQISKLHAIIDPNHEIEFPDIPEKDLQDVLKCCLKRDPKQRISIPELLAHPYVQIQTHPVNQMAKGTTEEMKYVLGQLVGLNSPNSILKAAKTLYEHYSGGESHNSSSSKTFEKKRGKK
Nature of the assay: Inhibition of TTK (unknown origin) assessed as residual activity at 1000 nM by KINOMEscan analysis relative to control.

Assay [14] has as its target Non-receptor tyrosine-protein kinase TYK2 (Homo sapiens) (UniProt P29597). Put plainly: Inhibition of TYK2 JH2 pseudokinase domain (unknown origin) assessed as residual activity at 1000 nM by KINOMEscan analysis relative to control.
Assay [15] deals with Ribosomal protein S6 kinase alpha-4 (Homo sapiens) (UniProt O75676). Put plainly: Inhibition of C-terminal RPS6KA4 […] domain 2 (unknown origin) assessed as residual activity at 1000 nM by KINOMEscan analysis relative to control.

Chain of 5'-AMP-activated protein kinase catalytic subunit alpha-1 (Homo sapiens) (Q13131 whole entry, looked up): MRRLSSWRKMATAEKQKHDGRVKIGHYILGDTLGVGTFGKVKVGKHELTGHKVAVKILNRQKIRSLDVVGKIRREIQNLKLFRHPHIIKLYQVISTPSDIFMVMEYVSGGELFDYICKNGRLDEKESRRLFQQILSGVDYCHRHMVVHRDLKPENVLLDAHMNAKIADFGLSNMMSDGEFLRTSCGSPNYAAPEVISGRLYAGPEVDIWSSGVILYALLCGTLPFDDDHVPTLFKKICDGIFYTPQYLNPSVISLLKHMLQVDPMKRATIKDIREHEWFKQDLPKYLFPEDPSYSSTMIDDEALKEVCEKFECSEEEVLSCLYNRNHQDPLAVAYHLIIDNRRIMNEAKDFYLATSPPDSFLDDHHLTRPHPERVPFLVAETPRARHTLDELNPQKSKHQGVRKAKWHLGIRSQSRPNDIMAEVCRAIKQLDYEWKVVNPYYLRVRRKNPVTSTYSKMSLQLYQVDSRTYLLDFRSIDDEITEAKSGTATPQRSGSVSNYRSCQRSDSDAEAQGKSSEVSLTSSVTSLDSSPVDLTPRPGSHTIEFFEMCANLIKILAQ
Chain of Myosin-IIIa (Homo sapiens) (Q8NEV4 whole entry, the tested form may be a part): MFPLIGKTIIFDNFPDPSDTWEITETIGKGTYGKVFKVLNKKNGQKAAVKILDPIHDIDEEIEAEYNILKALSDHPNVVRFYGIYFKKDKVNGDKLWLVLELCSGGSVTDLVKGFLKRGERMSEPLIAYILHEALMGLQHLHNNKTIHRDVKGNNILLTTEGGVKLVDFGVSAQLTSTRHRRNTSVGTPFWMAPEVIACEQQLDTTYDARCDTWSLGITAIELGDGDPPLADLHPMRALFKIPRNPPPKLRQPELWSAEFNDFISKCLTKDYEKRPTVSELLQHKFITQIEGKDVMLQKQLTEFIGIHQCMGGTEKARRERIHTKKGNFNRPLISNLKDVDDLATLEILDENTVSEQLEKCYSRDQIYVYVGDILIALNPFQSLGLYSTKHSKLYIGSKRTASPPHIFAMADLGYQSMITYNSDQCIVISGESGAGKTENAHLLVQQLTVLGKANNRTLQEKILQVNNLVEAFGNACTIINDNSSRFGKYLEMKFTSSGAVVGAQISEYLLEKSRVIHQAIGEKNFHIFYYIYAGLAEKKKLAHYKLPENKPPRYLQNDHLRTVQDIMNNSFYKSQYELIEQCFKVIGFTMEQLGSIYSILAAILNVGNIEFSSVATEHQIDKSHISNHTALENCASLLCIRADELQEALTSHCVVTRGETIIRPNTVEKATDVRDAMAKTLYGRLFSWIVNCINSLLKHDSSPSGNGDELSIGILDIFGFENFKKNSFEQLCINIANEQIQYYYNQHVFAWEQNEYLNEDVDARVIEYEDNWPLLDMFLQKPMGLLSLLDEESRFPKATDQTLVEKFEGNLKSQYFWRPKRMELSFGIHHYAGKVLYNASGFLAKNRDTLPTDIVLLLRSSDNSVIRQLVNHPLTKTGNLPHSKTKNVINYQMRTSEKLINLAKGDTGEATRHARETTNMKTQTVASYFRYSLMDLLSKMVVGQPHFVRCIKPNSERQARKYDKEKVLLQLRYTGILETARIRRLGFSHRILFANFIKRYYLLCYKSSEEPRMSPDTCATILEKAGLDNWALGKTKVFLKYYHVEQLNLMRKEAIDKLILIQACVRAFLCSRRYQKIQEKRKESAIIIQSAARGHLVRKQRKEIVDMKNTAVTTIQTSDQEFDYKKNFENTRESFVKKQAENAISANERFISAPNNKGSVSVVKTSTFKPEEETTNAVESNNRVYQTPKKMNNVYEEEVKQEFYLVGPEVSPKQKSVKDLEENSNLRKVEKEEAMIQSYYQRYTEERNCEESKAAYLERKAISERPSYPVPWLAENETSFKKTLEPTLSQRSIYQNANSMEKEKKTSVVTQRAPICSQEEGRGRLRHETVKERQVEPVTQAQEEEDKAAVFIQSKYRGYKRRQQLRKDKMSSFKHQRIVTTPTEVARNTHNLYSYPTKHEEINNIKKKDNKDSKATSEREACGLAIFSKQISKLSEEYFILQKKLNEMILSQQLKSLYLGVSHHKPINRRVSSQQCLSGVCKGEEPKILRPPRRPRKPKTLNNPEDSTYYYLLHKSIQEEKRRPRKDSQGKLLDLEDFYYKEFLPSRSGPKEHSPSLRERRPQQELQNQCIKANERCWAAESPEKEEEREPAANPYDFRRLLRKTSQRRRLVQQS
Chain of Glycogen synthase kinase-3 beta (Homo sapiens) (P49841 whole entry, looked up): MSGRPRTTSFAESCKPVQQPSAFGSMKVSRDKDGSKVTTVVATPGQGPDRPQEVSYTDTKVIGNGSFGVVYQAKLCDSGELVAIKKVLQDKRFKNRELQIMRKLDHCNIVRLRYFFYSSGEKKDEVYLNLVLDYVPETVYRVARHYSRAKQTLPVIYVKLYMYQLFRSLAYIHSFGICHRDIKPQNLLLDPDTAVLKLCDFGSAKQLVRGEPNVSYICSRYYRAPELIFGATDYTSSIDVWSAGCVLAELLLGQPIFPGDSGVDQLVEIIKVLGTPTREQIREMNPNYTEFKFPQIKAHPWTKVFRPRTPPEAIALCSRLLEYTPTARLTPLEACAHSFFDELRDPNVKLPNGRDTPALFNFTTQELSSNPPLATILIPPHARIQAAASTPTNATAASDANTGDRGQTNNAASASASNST
Chain of Casein kinase I isoform epsilon (Homo sapiens) (P49674 whole entry, looked up, canonical isoform): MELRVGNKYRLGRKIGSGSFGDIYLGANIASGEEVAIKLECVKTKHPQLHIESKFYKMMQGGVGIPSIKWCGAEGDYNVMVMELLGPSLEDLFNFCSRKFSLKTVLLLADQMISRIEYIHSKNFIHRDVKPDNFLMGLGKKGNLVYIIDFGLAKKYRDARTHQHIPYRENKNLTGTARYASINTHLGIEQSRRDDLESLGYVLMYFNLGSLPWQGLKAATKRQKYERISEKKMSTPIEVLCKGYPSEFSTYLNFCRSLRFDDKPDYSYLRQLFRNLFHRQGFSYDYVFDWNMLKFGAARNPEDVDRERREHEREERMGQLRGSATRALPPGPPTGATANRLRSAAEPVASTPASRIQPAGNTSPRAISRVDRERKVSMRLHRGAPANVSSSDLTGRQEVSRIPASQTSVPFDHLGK
Chain of Homeodomain-interacting protein kinase 3 (Homo sapiens) (Q9H422 whole entry, looked up): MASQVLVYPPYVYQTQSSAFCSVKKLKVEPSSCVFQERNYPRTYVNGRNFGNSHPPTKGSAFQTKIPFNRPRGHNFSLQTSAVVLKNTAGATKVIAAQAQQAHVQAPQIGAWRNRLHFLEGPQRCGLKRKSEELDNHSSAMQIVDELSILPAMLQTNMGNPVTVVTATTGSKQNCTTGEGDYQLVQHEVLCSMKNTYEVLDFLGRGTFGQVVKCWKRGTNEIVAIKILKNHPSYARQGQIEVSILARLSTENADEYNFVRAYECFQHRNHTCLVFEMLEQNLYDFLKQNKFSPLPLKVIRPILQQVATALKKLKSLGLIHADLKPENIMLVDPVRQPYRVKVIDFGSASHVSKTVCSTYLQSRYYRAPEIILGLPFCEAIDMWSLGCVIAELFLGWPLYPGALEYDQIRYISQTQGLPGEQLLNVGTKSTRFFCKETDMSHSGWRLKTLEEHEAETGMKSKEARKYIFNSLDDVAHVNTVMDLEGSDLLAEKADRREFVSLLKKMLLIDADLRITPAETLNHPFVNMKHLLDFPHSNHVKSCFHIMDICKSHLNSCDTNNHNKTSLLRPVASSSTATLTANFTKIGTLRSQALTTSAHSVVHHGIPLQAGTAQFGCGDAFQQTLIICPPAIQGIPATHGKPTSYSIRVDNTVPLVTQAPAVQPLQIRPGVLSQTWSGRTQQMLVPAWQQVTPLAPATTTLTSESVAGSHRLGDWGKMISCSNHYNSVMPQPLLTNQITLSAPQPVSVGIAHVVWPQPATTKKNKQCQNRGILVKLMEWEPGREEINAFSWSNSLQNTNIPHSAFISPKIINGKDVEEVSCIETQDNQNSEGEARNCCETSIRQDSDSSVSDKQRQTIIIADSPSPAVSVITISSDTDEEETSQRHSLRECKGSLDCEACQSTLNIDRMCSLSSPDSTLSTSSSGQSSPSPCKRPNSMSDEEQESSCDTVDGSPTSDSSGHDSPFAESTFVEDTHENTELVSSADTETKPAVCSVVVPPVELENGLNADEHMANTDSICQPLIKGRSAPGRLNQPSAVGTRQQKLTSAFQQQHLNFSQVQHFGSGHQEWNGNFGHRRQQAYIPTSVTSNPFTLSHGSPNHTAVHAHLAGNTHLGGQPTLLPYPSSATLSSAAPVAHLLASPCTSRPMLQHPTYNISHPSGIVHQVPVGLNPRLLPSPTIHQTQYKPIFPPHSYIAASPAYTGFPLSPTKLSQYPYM
Chain of Serine/threonine-protein kinase MARK1 (Homo sapiens) (Q9P0L2 whole entry, looked up): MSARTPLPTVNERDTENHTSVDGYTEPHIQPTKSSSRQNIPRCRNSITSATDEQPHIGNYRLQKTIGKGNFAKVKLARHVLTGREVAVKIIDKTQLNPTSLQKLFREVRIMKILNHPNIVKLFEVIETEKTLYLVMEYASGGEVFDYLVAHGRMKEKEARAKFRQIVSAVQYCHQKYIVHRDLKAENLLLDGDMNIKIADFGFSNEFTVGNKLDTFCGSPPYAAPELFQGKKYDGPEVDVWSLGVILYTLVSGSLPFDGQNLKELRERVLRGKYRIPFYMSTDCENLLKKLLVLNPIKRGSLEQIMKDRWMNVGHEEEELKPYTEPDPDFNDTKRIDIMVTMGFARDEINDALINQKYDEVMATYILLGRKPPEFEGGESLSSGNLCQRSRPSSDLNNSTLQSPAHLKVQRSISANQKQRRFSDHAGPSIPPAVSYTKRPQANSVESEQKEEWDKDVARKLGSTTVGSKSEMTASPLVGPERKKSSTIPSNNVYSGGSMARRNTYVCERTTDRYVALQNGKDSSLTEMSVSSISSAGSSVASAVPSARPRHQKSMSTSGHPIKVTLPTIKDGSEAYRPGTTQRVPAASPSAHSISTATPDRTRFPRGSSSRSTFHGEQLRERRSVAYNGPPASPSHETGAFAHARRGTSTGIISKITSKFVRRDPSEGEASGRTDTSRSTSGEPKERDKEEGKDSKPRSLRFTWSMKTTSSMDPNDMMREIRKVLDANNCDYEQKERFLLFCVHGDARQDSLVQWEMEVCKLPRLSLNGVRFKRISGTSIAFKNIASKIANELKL

Turning to `COc1cc2nc(C)nc(N[C@H](C)c3cccc(-c4cn[nH]c4)c3)c2cc1OC`, the Activity came to 82% in [1]; 68% in assay [2]; 100% in [3]; 97% in assay [4]; 61% in assay [5]; 69% in [6]. For the same molecule, the Activity is 100% in assay [7]; 100% in [8]; 100% in [9]; 92% in [10]; 90% in [11]; 99% in assay [12]. Moreover, the Activity in [13] was determined as 78%; in assay [14], 80%; in assay [15], 100%.

For the molecule `COc1cc2ncnc(N[C@H](C)c3cccc4ccccc34)c2cc1OC`, the Activity was found to be 100% in assay [1]; 81% in assay [2]; 100% in assay [3]; 100% in [4]; 100% in assay [5]; 88% in assay [6]. Moreover, the Activity in [7] worked out at 100%; in [8], 97%; in [9] it was 73%; in assay [10] it was 97%; in [11] it was 89%; in assay [12], 97%. The values for the Activity in assay [13], in assay [14] and in assay [15] were 95%, 100% and 82%, respectively.
